biological target: recombinant human integrin αVβ6 (Homo sapiens (Human), UniProt P06756+P18564); assay: Solid phase integrin αVβ6 binding assay; conditions: recombinant TGFβ1 LAP as ligand, values given as ranges, read-out: αVβ6 Inhibition IC50 (nM) - range
Procedure: Example B1—Solid Phase Integrin αVβ6 Binding Assay
Microplates were coated with recombinant human integrin αVβ6 (2 μg/mL) in PBS (100 μL/well 25 OC, overnight). The coating solution was removed, washed with wash buffer (0.05% Tween 20; 0.5 mM MnCl2; in 1×TBS). Plate was blocked with 200 μL/well of Block Buffer (1% BSA; 5% sucrose; 0.5 mM MnCl2; in 1×TBS) at 37° C. for 2 h. Dilutions of testing compounds and recombinant TGFβ1 LAP (0.67 μg/mL) in binding buffer (0.05% BSA; 2.5% sucrose; 0.5 mM MnCl2; in 1×TBS) were added. The plate was incubated for 2 hours at 25° C., washed, and incubated for 1 hour with Biotin-Anti-hLAP. Bound antibody was detected by peroxidase-conjugated streptavidin. The IC50 values for testing compounds were calculated by a four-parameter logistic regression.
The compounds tested were compound samples prepared according to procedures described in the Synthetic Examples section, with the stereochemical purity as indicated in the Examples.

Sequence of recombinant human integrin αVβ6 (P06756 31-992): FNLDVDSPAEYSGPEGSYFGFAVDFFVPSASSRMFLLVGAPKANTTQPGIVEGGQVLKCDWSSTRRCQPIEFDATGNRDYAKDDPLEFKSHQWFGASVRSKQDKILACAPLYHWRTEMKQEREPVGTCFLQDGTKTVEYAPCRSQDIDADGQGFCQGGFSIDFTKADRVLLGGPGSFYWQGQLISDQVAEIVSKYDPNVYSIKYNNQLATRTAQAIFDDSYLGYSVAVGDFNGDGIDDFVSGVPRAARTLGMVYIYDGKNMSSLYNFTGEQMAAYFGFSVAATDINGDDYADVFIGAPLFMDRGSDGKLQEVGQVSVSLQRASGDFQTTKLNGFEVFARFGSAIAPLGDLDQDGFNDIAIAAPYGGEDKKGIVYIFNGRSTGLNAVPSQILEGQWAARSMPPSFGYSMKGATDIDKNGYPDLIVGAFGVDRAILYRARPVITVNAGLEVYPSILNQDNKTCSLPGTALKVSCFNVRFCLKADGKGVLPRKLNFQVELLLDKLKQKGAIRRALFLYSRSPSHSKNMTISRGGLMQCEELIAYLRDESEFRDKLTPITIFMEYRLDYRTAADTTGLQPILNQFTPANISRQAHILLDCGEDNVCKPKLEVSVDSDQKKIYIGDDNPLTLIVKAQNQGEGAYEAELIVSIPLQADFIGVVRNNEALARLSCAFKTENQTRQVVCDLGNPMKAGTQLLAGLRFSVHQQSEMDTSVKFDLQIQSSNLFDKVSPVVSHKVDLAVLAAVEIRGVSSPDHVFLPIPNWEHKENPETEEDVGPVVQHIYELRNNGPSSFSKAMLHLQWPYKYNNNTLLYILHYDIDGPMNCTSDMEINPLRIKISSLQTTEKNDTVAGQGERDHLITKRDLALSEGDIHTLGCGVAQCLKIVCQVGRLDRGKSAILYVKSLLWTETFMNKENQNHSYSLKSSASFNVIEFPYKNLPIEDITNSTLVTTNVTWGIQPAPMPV
Sequence of recombinant human integrin αVβ6 (P18564 22-707): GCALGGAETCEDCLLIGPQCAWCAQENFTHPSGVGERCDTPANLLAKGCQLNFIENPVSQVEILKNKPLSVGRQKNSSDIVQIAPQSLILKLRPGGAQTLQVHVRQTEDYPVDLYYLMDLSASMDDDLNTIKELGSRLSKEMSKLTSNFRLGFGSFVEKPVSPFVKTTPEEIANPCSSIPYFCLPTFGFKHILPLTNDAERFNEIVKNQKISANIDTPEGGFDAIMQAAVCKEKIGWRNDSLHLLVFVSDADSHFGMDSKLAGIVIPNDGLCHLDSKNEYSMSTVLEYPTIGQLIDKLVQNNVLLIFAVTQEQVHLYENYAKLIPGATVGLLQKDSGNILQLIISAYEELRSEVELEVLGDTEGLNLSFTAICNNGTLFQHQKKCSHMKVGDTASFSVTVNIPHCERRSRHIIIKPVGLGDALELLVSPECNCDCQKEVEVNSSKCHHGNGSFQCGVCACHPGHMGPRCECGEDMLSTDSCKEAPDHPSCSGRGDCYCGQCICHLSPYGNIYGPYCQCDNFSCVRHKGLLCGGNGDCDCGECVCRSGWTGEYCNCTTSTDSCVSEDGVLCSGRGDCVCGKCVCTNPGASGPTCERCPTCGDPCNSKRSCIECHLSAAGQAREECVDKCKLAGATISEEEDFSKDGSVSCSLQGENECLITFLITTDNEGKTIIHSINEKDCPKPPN

SMILES	IC50 [nM]
CC(=O)N1CCC(C(=O)N[C@@H](CCCCCCCc2ccc3c(n2)NCCC3)C(=O)O)CC1 [Compound 36, (S)-2-(1-acetylpiperidine-4-carboxamido)-9-(5,6,7,8-tetrahydro-1,8-naphthyridin-2-yl)nonanoic Acid]	50 to 250
O=C(O)[C@H](CCCCCCCc1ccc2c(n1)NCCC2)NC(=O)[C@H]1CCOc2ccccc21 (mixture of isomers) [Compound 46, (S)-2-((S)-chromane-4-carboxamido)-9-(5,6,7,8-tetrahydro-1,8-naphthyridin-2-yl)nonanoic Acid and (S)-2-((R)-chromane-4-carboxamido)-9-(5,6,7,8-tetrahydro-1,8-naphthyridin-2-yl)nonanoic Acid]	50 to 250
CS(=O)(=O)CCCC(=O)N[C@@H](CCCCCCCc1ccc2c(n1)NCCC2)C(=O)O [Compound 24, (S)-2-(4-(methylsulfonyl)butanamido)-9-(5,6,7,8-tetrahydro-1,8-naphthyridin-2-yl)nonanoic Acid]	251 to 1000
CS(=O)(=O)N1CCC[C@@H](C(=O)N[C@@H](CCCCCCCc2ccc3c(n2)NCCC3)C(=O)O)C1 (mixture of isomers) [Compound 37, (S)-2-((R)-1-(methylsulfonyl)piperidine-3-carboxamido)-9-(5,6,7,8-tetrahydro-1,8-naphthyridin-2-yl)nonanoic acid and (S)-2-((S)-1-(methylsulfonyl)piperidine-3-carboxamido)-9-(5,6,7,8-tetrahydro-1,8-naphthyridin-2-yl)nonanoic Acid]	< 50
CS(=O)(=O)N1CCC(C(=O)N[C@@H](CCCCCCCc2ccc3c(n2)NCCC3)C(=O)O)CC1 [Compound 39, (S)-2-(1-(methylsulfonyl)piperidine-4-carboxamido)-9-(5,6,7,8-tetrahydro-1,8-naphthyridin-2-yl)nonanoic Acid]	< 50
CC(C)(C)OC(=O)N1CC(C)(OC(=O)N[C@@H](CCCCCCCc2ccc3c(n2)NCCC3)C(=O)O)C1 [Compound 32, (S)-2-((((1-(tert-butoxycarbonyl)-3-methylazetidin-3-yl)oxy)carbonyl)amino)-9-(5,6,7,8-tetrahydro-1,8-naphthyridin-2-yl)nonanoic Acid]	< 50

Further lines, results first:

IC50 [nM]	SMILES
251 to 1000	COCCCC(=O)N[C@@H](CCCCCCCc1ccc2c(n1)NCCC2)C(=O)O [Compound 30, (S)-2-(4-methoxybutanamido)-9-(5,6,7,8-tetrahydro-1,8-naphthyridin-2-yl)nonanoic Acid]
< 50	CC1(C(=O)N[C@@H](CCCCCCCc2ccc3c(n2)NCCC3)C(=O)O)CCCCC1 [Compound 44, (S)-2-(1-methylcyclohexanecarboxamido)-9-(5,6,7,8-tetrahydro-1,8-naphthyridin-2-yl)nonanoic Acid]
< 50	O=C(O)[C@H](CCCCCCCc1ccc2c(n1)NCCC2)NC(=O)C12CC(C1)C2 [Compound 45, (S)-2-(bicyclo[1.1.1]pentane-1-carboxamido)-9-(5,6,7,8-tetrahydro-1,8-naphthyridin-2-yl)nonanoic Acid]
< 50	O=C(O)[C@H](CCCCCCCc1ccc2c(n1)NCCC2)NC(=O)C1(C(F)(F)F)CCOCC1 [Compound 42, (S)-9-(5,6,7,8-tetrahydro-1,8-naphthyridin-2-yl)-2-(4-(trifluoromethyl)tetrahydro-2H-pyran-4-carboxamido)nonanoic Acid]
< 50	O=C(N[C@@H](CCCCCCCc1ccc2c(n1)NCCC2)C(=O)O)C1CC2CCC(C1)O2 (stereo partly drawn) [Compound 43, (S)-2-((1R,3s,5S)-8-oxabicyclo[3.2.1]octane-3-carboxamido)-9-(5,6,7,8-tetrahydro-1,8-naphthyridin-2-yl)nonanoic acid and (S)-2-((1R,3r,5S)-8-oxabicyclo[3.2.1]octane-3-carboxamido)-9-(5,6,7,8-tetrahydro-1,8-naphthyridin-2-yl)nonanoic Acid]
50 to 250	C[C@@]1(C(=O)N[C@@H](CCCCCCCc2ccc3c(n2)NCCC3)C(=O)O)CCCOC1 (mixture of isomers) [Compound 47, (S)-2-((R)-3-methyltetrahydro-2H-pyran-3-carboxamido)-9-(5,6,7,8-tetrahydro-1,8-naphthyridin-2-yl)nonanoic Acid and (S)-2-((S)-3-methyltetrahydro-2H-pyran-3-carboxamido)-9-(5,6,7,8-tetrahydro-1,8-naphthyridin-2-yl)nonanoic Acid]
251 to 1000	NS(=O)(=O)CCC(=O)N[C@@H](CCCCCCCc1ccc2c(n1)NCCC2)C(=O)O [Compound 38, (S)-2-(3-sulfamoylpropanamido)-9-(5,6,7,8-tetrahydro-1,8-naphthyridin-2-yl)nonanoic Acid]
50 to 250	O=C(N[C@@H](CCCCCCCc1ccc2c(n1)NCCC2)C(=O)O)C1CCNCC1 [Compound 34, (S)-2-(piperidine-4-carboxamido)-9-(5,6,7,8-tetrahydro-1,8-naphthyridin-2-yl)nonanoic Acid]
< 50	CC1(C(=O)N[C@@H](CCCCCCCc2ccc3c(n2)NCCC3)C(=O)O)CCOCC1 [Compound 8, (S)-2-(4-methyltetrahydro-2H-pyran-4-carboxamido)-9-(5,6,7,8-tetrahydro-1,8-naphthyridin-2-yl)nonanoic Acid]
